Experimental data as given in the supplement of paper PMC10307832.

Columns and labels:
Assay in all cases: relative viability (nuclei count vs DMSO), 5 days (fraction); higher = more cells survive
[1] = compound: Cc1ccc2nc(NCCN)c3ncc(C)n3c2c1 + Cc1cc(Nc2cc(N3CCN(C)CC3)nc(Sc3ccc(NC(=O)C4CC4)cc3)n2)n[nH]1 [Tozasertib] (partner 0.1 µM)
Summary of the method: (§1)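 Cells from lung cancer lines were seeded into 1536-well plates and, one day later, dosed by pin tool. Treatments were either a single drug or a fixed dose of an anchor drug with five library-drug doses (not always all listed) in √10 steps. After 5 days, nuclei were stained in a one-step fixation (final 0.05% Triton X-100, 1% formaldehyde, 1 ug/ml Hoechst) and counted on 4× images, and relative viability is the treated-to-vehicle nuclei ratio, as the median of duplicate plates.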

[2] = compound: O=C(/C=C/c1ccccc1)NC(NC(=S)Nc1cccc2cccnc12)C(Cl)(Cl)Cl [Salubrinal] + CC1(C)CCC(c2ccc(Cl)cc2)=C(CN2CCN(c3ccc(C(=O)NS(=O)(=O)c4ccc(N[C@H](CCN5CCOCC5)CSc5ccccc5)c(S(=O)(=O)C(F)(F)F)c4)cc3)CC2)C1 [Navitoclax] (partner 0.5 µM)
Summary of the method: as §1

[3] = compound: O=C(/C=C/c1ccccc1)NC(NC(=S)Nc1cccc2cccnc12)C(Cl)(Cl)Cl [Salubrinal] + C[C@@H](Oc1cc(-c2cnn(C3CCNCC3)c2)cnc1N)c1c(Cl)ccc(F)c1Cl [Crizotinib] (partner 1 µM)
Summary of the method: as §1

[4] = compound: O=C(/C=C/c1ccccc1)NC(NC(=S)Nc1cccc2cccnc12)C(Cl)(Cl)Cl [Salubrinal] + Nc1nc2[nH]cc(CCc3ccc(C(=O)N[C@@H](CCC(=O)O)C(=O)O)cc3)c2c(=O)[nH]1 [Pemetrexed] (partner 0.2 µM)
Summary of the method: as §1

Cell Line	relative viability ([1]; first compound 0.04 µM)	relative viability ([1]; first compound 0.1265 µM)	relative viability ([1]; first compound 0.4 µM)	relative viability ([1]; first compound 1.265 µM)	relative viability ([1]; first compound 4 µM)	relative viability ([2]; first compound 0.08 µM)	relative viability ([2]; first compound 0.253 µM)	relative viability ([2]; first compound 0.8 µM)	relative viability ([2]; first compound 2.53 µM)	relative viability ([2]; first compound 8 µM)	relative viability ([3]; first compound 0.08 µM)	relative viability ([3]; first compound 0.253 µM)	relative viability ([3]; first compound 0.8 µM)	relative viability ([3]; first compound 2.53 µM)	relative viability ([3]; first compound 8 µM)	relative viability ([4]; first compound 0.08 µM)	relative viability ([4]; first compound 0.253 µM)	relative viability ([4]; first compound 0.8 µM)	relative viability ([4]; first compound 2.53 µM)	relative viability ([4]; first compound 8 µM)
HCC-44	1.06	0.896	1.04	0.753	0.645	1.06	0.899	0.999	0.97	0.802	0.833	0.801	0.863	0.748	0.759	0.641	0.708	0.66	0.698	0.662
HCC-827	0.465	0.433	0.454	0.459	0.425	1.03	0.958	1.1	1.05	0.979	0.901	0.921	0.992	0.475	0.844	0.503	0.276	0.278	0.227	0.245
NCI-H2342	0.481	0.583	0.47	0.599	0.463	–	–	–	–	–	–	–	–	–	–	0.722	0.772	0.937	0.758	0.826
NCI-H2347	0.801	0.58	0.509	0.519	0.437	0.928	0.86	0.75	0.728	0.864	0.709	0.709	0.772	0.76	0.719	0.43	0.43	0.423	0.452	0.529
PC-14	0.604	0.524	0.514	0.481	0.414	1.05	1.01	1	1.07	0.864	0.927	0.853	0.935	0.885	0.914	0.114	0.154	0.147	0.124	0.108
NCI-H1651	0.625	0.71	0.652	0.677	0.718	1.1	1.01	1.21	–	0.979	0.923	0.864	0.925	0.858	0.9	0.655	0.393	0.781	0.604	0.6
HARA	0.77	0.156	0.126	0.107	0.11	1.05	1.18	1.13	1.16	1.11	1.21	0.911	1.03	1.14	0.868	0.254	0.285	0.327	0.273	0.254
NCI-H1650	0.434	0.431	0.513	0.439	0.296	1.17	1.06	1.13	1.19	1.16	1.06	0.859	1.02	0.882	0.942	0.354	0.3	0.398	0.383	0.376
NCI-H1395	0.754	0.763	0.661	0.655	0.795	1.08	1.26	1.12	1.06	1.29	–	–	–	–	–	0.96	1.09	1.03	0.984	0.718
LU99A	0.308	0.292	0.248	0.298	0.263	0.942	0.864	0.798	0.858	0.828	0.588	0.635	0.657	0.528	0.5	0.176	0.205	0.265	0.265	0.185
NCI-H1355	0.565	0.517	0.611	0.546	0.553	1.02	1.07	1.07	0.949	0.87	1.18	1.12	1.12	1.12	1.03	1.11	1.02	1.1	1.03	1.09
HCC-78	0.4	0.375	0.291	0.403	0.388	0.851	0.835	0.982	0.764	0.769	0.363	0.325	0.398	0.308	0.302	0.928	0.837	0.971	0.918	0.899
NCI-H1563	–	–	–	–	–	–	–	–	–	–	0.853	0.859	0.878	0.851	0.962	0.671	0.761	0.907	0.784	0.798
HCC-15	0.382	0.412	0.439	0.345	0.247	0.785	0.602	0.722	0.771	0.689	0.984	0.651	0.946	0.883	0.785	0.205	0.266	0.234	0.231	0.211
EKVX	0.433	0.359	0.366	0.349	0.407	0.958	0.983	0.911	1.08	1.06	1.16	0.811	0.971	0.974	1.07	0.411	0.361	0.444	0.385	0.325
NCI-H2087	0.282	0.222	0.288	0.204	0.179	1.04	1.02	1.11	0.964	0.945	0.984	0.758	0.913	0.867	0.865	0.649	0.532	0.699	0.644	0.63
LK-2	0.171	0.174	0.152	0.154	0.179	1.07	0.793	1.05	0.958	0.921	0.249	0.252	0.247	0.218	0.23	0.321	0.24	0.463	0.335	0.254
